Laboratory results as given in patent US5597848A, “Benzenesulfonamide derivatives and use thereof” (Hokuriku Seiyaku Co., Ltd., priority 1992, dated 1997).

Assays:
leukotriene D4 = target: T1, leukotriene D4 (Cavia porcellus, UniProt Q2NNR5); assay: Leukotriene D4 antagonistic effect in isolated trachea (Schild method); set-up: species or system male Hartley guinea-pigs; details: isolated trachea, 30 min treatment, indomethacin 3×10^-6 M, Krebs 37° C.
T1 construct: tracheas were isolated from male Hartley guinea-pigs; from tissue; host or cells: isolated trachea of male Hartley guinea-pigs
T1 sequence (Q2NNR5 1-340): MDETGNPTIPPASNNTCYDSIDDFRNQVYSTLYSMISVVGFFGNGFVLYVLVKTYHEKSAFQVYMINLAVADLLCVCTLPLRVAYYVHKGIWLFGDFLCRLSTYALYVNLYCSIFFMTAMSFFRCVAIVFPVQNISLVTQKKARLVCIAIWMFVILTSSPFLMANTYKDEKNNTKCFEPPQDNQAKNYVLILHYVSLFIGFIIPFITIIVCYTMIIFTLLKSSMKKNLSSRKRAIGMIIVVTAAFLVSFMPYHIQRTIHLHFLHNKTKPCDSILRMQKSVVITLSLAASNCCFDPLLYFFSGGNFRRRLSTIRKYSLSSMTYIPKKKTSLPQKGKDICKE
Method: According to an ordinary method, tracheas were isolated from male Hartley guinea-pigs, and ring specimens of approximately […] length were prepared. These specimens were suspended isotonically in organ baths that contained Krebs solution at 37° C. under a resting tension of 0.5 g. After repeated contractions with acetylcholine (1×10^-6 M; Ovisot for injection, Daiichi Seiyaku), and the first concentration-response curves was obtained by cummulative applications of leukotriene D4 (ULTRA FINE) into the organ baths. After treatments with test compounds at adequate concentrations for 30 min, the second concentration-response curves were obtained in the same manner as first applications. pKB values were calculated using these two concentration-response curves according to the method of Schild [Pharmacological Review, Vol. 9, 242 (1957)]. Indomethacin (3×10^-6 M; Sigma) was added beforehand to the organ bath to eliminate possible affections by thromboxane A2 and prostaglandin produced by stimulus of leukotriene D4 [Japan J. Pharmacol., Vol. 60, 227 (1992)].

[1] = test system: broncho-constriction induced by leukotriene D4; assay: Inhibitory effect on broncho-constriction induced by leukotriene D4 (Konzett-Roessler method, oral); type: in vivo, male Hartley guinea-pig; details: Cavia porcellus, po; 30 mg/kg orally, leukotriene D4 1 μg/kg after 2 hr; indomethacin and propranolol pretreatment; read-out: Inhibition rate
Method: Airway resistance was evaluated according to the method of Konzett-Roessler[Naunyn-Schmiedberg's Arch. Exp. Path. Pharmak., Vol. 195, 71 (1940)]. After male Hartley guinea-pig fasted beforehand for 24 hr were anesthetized with urethane, overflowed air volume was measured under artificial ventilation as an index of broncho-constriction. 30 mg/kg (5 ml/kg) of test compounds suspended in 5% gum Arabic were administered orally to […]. Leukotriene D4 (1 μg/kg; ULTRA FINE) was administered through the cervical vein after 2 hr, and then values were measured at 2 min after the time when responses became maximum. Inhibitory rates compared to the control group were calculated based on the response rate normalized by the overflowed volume at complete closure as 100% broncho-constriction state. Indomethacin (2 mg/kg, i.v.) and propranolol (1 mg/kg, i.v.) were administered at 10 min and 5 min before the administration of leukotriene D4, respectively.

thromboxane A2 receptor = target: T2, thromboxane A2 receptor (Cavia porcellus, UniProt A0A286Y4I8); assay: Thromboxane A2 antagonistic effect: inhibition of U-46619-induced platelet aggregation in guinea-pig platelet-rich plasma; type: cell-based, guinea-pigs; details: guinea-pig PRP, U-46619 2 μg/ml, 2 min at 37° C.; read-out: IC50 (50% inhibition against platelet aggregation)
T2 construct: platelet-rich plasma; endogenous in cells; host or cells: guinea-pig platelets in platelet-rich plasma
T2 sequence (A0A286Y4I8 1-347): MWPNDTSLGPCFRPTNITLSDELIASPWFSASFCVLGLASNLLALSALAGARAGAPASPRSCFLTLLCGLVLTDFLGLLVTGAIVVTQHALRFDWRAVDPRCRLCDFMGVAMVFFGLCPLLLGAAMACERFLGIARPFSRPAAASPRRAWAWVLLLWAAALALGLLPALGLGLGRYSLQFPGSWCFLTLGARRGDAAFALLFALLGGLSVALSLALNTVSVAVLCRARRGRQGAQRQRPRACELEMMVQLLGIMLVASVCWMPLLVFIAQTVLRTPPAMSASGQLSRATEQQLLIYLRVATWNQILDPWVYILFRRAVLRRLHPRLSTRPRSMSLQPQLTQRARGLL
Method: Blood was collected from the abdominal aorta of guinea-pigs (about 400 g wt.) into 1/10 volume of 3.8% sodium citrate, and then platelet-rich plasma (PRP: 6×10^5 cells/μl) was obtained by centrifugation. A cuvette was filled with PRP 190 μl and set in an aggregometer (Hema Tracer I; Niko Bioscience). Incubation was carried out for 2 min. at 37° C. after the addition of 1 μl of dimethyl sulfoxide solution of test compounds. To the PRP, 10 μl of U-46619 (Cayman), a thromboxane A2 /prostaglandin H2 receptor agonist and potent platelet aggregation inducer, was added at the final concentration of 2 μg/ml, and platelet aggregation was measured by an aggregometer.

[2] = test system: broncho-constriction induced by U-46619; assay: Inhibitory effect on broncho-constriction induced by U-46619 (Konzett-Roessler method, oral); type: in vivo, Male hartley guinea-pigs; details: 0.3 mg/kg orally, 2 hrs before U-46619 4 μg/kg
Method: Airway resistance was evaluated according to the method of Konzett-Roessler[Naunyn-Schmiedberg's Arch. Exp. Path. Pharmak., Vol. 195, 71 (1940)]. Male hartley guinea-pigs (about 400 g wt.) were anesthetized with urethane (1.5 g/kg, i.p.) and ventilated by an artificial respirator (Model 683; Harvard). At that time, overflowed air volume above the pressure of about 12 cm H2 O was measured by using a sensor (Model 7020; Ugo basile) and the value was used as an index of broncho-constriction. 0.3 mg/kg (5 ml/kg) of test compounds suspended in 5% gum Arabic was administered orally to Guinea-pigs fasted beforehand for 24 hr. After 2 hrs, U-46619 (4 μg/kg; Cayman) was administered through the cervical vein, and then maximal response was measured. Inhibitory rates compared to the reference group were calculated based on the response rate normalized by the complete closure as 100%.

| Kb (leukotriene D4) | IC50 (thromboxane A2 receptor) | SMILES | inhibition in vivo at 30 mg/kg [1] | Inhibition rate [2] |
| --- | --- | --- | --- | --- |
| 200 nM |  | C[C@H]1CC[C@H](C(NS(=O)(=O)c2ccc(Cl)cc2)c2ccc(CCCC(=O)O)cc2)CC1 (relative stereo) [Example 76, trans-4-[4-[(4-Chlorophenylsulfonylamino)(4-methylcyclohexyl)methyl]phenyl]butyric Acid] |  |  |
| 631 nM |  | CCCCC[C@H]1CC[C@H](C(NS(=O)(=O)c2ccc(Cl)cc2)c2ccc(CCCC(=O)O)cc2)CC1 (relative stereo) [Example 77, trans-4-[4-[(4-Chlorophenylsulfonylamino)(4-pentylcyclohexyl)methyl]phenyl]butyric Acid] |  |  |
| 794 nM | 320 nM | CCCCC(NS(=O)(=O)c1ccc(Cl)cc1)c1ccc(CCCC(=O)O)cc1 (centres unmarked) [Example 66, 4-[4-[1-(4-Chlorophenylsulfonylamino)pentyl]phenyl]butyric Acid] | 81% | 85% |
|  | 400 nM | CCCCCC(NS(=O)(=O)c1ccc(Cl)cc1)c1ccc(CCCC(=O)O)cc1 (centres unmarked) [Example 67, 4-[4-[1-(4-Chlorophenylsulfonylamino)hexyl]phenyl]butyric Acid] | 80% | 86% |
| 398 nM | 320 nM | O=C(O)CCCc1ccc(C(NS(=O)(=O)c2ccc(Cl)cc2)C2CCCCCC2)cc1 (centres unmarked) [Example 75, 4-[4-[(4-Chlorophenylsulfonylamino)cycloheptylmethyl]phenyl]butyric Acid] |  |  |
| 1000 nM | 320 nM | O=C(O)CCCc1ccc(C(CC2CCCC2)NS(=O)(=O)c2ccc(Cl)cc2)cc1 (centres unmarked) [Example 78, 4-[4-[1-(4-Chlorophenylsulfonylamino)-2-cyclopentylethyl]phenyl]butyric Acid] |  |  |
| 100 nM | 320 nM | O=C(O)CCCc1ccc(C(CC2CCCCC2)NS(=O)(=O)c2ccc(Cl)cc2)cc1 (centres unmarked) [Example 79, 4-[4-[1-(4-Chlorophenylsulfonylamino)-2-cyclohexylethyl]phenyl]butyric Acid] |  | 55% |
| 126 nM | 320 nM | CCCCCCC(NS(=O)(=O)c1ccc(Cl)cc1)c1ccc(CCCC(=O)O)cc1 (centres unmarked) [Example 99, 4-[4-[1-(4-Chlorophenylsulfonylamino)heptyl]phenyl]butyric Acid] | 64% |  |
| 200 nM |  | CCCCC(NS(=O)(=O)c1ccc(Cl)cc1)c1ccc(CCCCC(=O)O)cc1 (centres unmarked) [Example 102, 5-[4-[1-(4-Chlorophenylsulfonylamino)pentyl]phenyl]valeric Acid] | 50% |  |
| 126 nM |  | CCCCCC(NS(=O)(=O)c1ccc(Cl)cc1)c1ccc(CCCCC(=O)O)cc1 (centres unmarked) [Example 106, 5-[4-[1-(4-Chlorophenylsulfonylamino)hexyl]phenyl]valeric Acid] | 58% |  |

The next lines start with the compound.

| SMILES | Kb (leukotriene D4) | IC50 (thromboxane A2 receptor) | inhibition in vivo at 30 mg/kg [1] | Inhibition rate [2] |
| --- | --- | --- | --- | --- |
| CC(C)CCC(NS(=O)(=O)c1ccc(Cl)cc1)c1ccc(CCCC(=O)O)cc1 (centres unmarked) [Example 71, 4-[4-[1-(4-Chlorophenylsulfonylamino)-4-methylpentyl]phenyl]butyric Acid] | 200 nM | 400 nM | 68% |  |
| O=C(O)CCCc1ccc(C(CCC2CCCCC2)NS(=O)(=O)c2ccc(Cl)cc2)cc1 (centres unmarked) [Example 80, 4-[4-[1-(4-Chlorophenylsulfonylamino)-3-cyclohexylpropyl]phenyl]butyric Acid] | 126 nM | 1000 nM | 60% |  |
| O=C(O)CCCc1ccc(C(CC23CC4CC(CC(C4)C2)C3)NS(=O)(=O)c2ccc(Cl)cc2)cc1 (centres unmarked) [Example 84, 4-[4-[2-(1-Adamantyl)-1-(4-chlorophenylsulfonylamino)ethyl]phenyl]butyric Acid] | 200 nM |  |  |  |
| O=C(O)CCCc1ccc(C(CC2CC3CCC2C3)NS(=O)(=O)c2ccc(Cl)cc2)cc1 (centres unmarked) [Example 85, 4-[4-[1-(4-Chlorophenylsulfonylamino)-2-(2-norbornyl)ethyl]phenyl]butyric Acid] | 158 nM | 400 nM |  |  |
| O=C(O)CCCc1ccc(C(Cc2ccc(F)cc2)NS(=O)(=O)c2ccc(Cl)cc2)cc1 (centres unmarked) [Example 95, 4-[4-[1-(4-Chlorophenylsulfonylamino)-2-(4-fluorophenyl)ethyl]phenyl]butyric Acid] | 501 nM | 160 nM |  |  |
| CCCCCC(NS(=O)(=O)c1ccc(Br)cc1)c1ccc(CCCC(=O)O)cc1 (centres unmarked) [Example 104, 4-[4-[1-(4-Bromophenylsulfonylamino)hexyl]phenyl]butyric Acid] |  |  | 83% |  |
| CCCCCC(NS(=O)(=O)c1ccc(F)cc1)c1ccc(CCCC(=O)O)cc1 (centres unmarked) [Example 105, 4-[4-[1-(4-Fluorophenylsulfonylamino)hexyl]phenyl]butyric Acid] |  |  | 82% |  |
| CC(C)CCCC(NS(=O)(=O)c1ccc(Cl)cc1)c1ccc(CCCC(=O)O)cc1 (centres unmarked) [Example 107, 4-[4-[1-(4-Chlorophenylsulfonylamino)-5-methylhexyl]phenyl]butyric Acid] | 100 nM | 250 nM | 83% |  |
| CC(C)CCCCC(NS(=O)(=O)c1ccc(Cl)cc1)c1ccc(CCCC(=O)O)cc1 (centres unmarked) [Example 108, 4-[4-[1-(4-Chlorophenylsulfonylamino)-6-methylheptyl]phenyl]-butyric Acid] | 158 nM | 500 nM | 82% |  |
| O=C(O)CCCCc1ccc(C(CC2CCCCC2)NS(=O)(=O)c2ccc(Cl)cc2)cc1 (centres unmarked) [Example 113, 5-[4-[1-(4-Chlorophenylsulfonylamino)-2-cyclohexylethyl]phenyl]valeric Acid] | 39.8 nM | 400 nM |  |  |
| O=C(O)CCCc1ccc(C(CCCCCc2ccccc2)NS(=O)(=O)c2ccc(Cl)cc2)cc1 (centres unmarked) [Example 116, 4-[4-[1-(4-Chlorophenylsulfonylamino)-6-phenylhexyl]phenyl]butyric Acid] | 200 nM | 500 nM |  |  |
| CCCCc1ccc(CCC(NS(=O)(=O)c2ccc(Cl)cc2)c2ccc(CCCC(=O)O)cc2)cc1 (centres unmarked) [Example 117, 4-[4-[3-(4-Butylphenyl)-1-(4-chlorophenylsulfonylamino)propyl]phenyl]butyric Acid] | 251 nM |  |  |  |
